Laboratory results taken from patent US20230109839A1, “THERAPEUTIC AGENT FOR TAUOPATHIES” (SUMITOMO PHARMA CO., LTD., priority 2020, published 2023).

target: T1, human Nav1.1 (Homo sapiens, UniProt P35498); test: Amplification of Nav1.1-derived voltage-gated sodium current (Nav1.1 current), automated patch clamp (Test 1); assay type: cell-based; conditions: Concentration for evaluation 1 μM; HEK293 cell line stably expressing human Nav1.1
T1 construct: host or cells: HEK293
Procedure, shortened: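 HEK293 cells stably expressing human Nav1.1, restricted to cells with >500 pA current, were recorded by automated voltage-clamp patch clamp with a ramp voltage stimulus. Compounds were applied in HEPES-buffered extracellular solution with 1% DMSO. Amplification (%) = 100×(peak or AUC after/before compound)−100.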

Nav1.1 current amplification rate (%)	Structure (SMILES)
107	CN(c1cnc2cnn(CC(=O)N3CCc4c3cccc4C(C)(C)O)c2n1)C1CC1 [Example 734]
13	CC1CC=C(c2ccc(=O)n(CC(=O)Nc3cncc(C4=COCCC4)c3)n2)CC1 (stereo not shown) [Example 382]
69	CC1CC=C(c2ccc(=O)n(CC(=O)Nc3ccc4cncn4c3)n2)CC1 (stereo not shown) [Example 344]
201	CN(c1cnc2cnn(CC(=O)N3CCc4c(C5=CCOCC5)cccc43)c2n1)C1CCC1 [Example 688]
37	Cc1nc2ccc(NC(=O)Cn3nc(C4=CCC(C)CC4)ccc3=O)cn2n1 (stereo not shown) [Example 347]
133	CC1CC=C(c2ccc(=O)n(CC(=O)Nc3ccnc(C#N)c3)n2)CC1 (stereo not shown) [Example 362]
152	CN(c1cnc2cnn(CC(=O)Nc3ccc4ccncc4c3)c2n1)C1CC1 [Example 732]
54	CN(c1cnc2cnn(CC(=O)N3CCc4cc(N5CCOCC5)ccc43)c2n1)C1CC1 [Example 705]
45	CN1CCN(c2cccc3c2CCN3C(=O)Cn2ncc3ncc(N(C)C4CC4)nc32)CC1 [Example 716]
200	CN(CC1CCCC1)c1cnc2cnn(CC(=O)Nc3ccn4ncnc4c3)c2n1 [Example 626]
280	CC1(C)CC=C(c2ccc(=O)n(CC(=O)N3CCc4c(N5CCOCC5)cccc43)n2)CC1 [Example 432]
12	CC(C)CN(C)c1cnc2cnn(CC(=O)Nc3ccc4ncnn4c3)c2n1 [Example 661]
91	CC1CC=C(c2ccc(=O)n(CC(=O)N3CCc4c3ccnc4C3=CCOC3)n2)CC1 (stereo not shown) [Example 284]
9	COCCNCc1cccc2c1CCN2C(=O)Cn1nc(C2=CCC(C)CC2)ccc1=O (stereo not shown) [Example 314]
366	CN(c1cnc2cnn(CC(=O)N3CCc4c(-c5ccnnc5)cccc43)c2n1)C1CC1 [Example 699]
78	CN(c1cnc2cnn(CC(=O)Nc3cnc4ccccc4c3)c2n1)C1CC1 [Example 719]
848	CC1CC=C(c2ccc(=O)n(CC(=O)N3CCc4c(Cn5ccnc5)cccc43)n2)CC1 (stereo not shown) [Example 286]

same assay, conditions: Concentration for evaluation 3 μM; HEK293 cell line stably expressing human Nav1.1

Nav1.1 current amplification rate (%)	Structure (SMILES)
15	COCC1(N(C)c2cnc3cnn(CC(=O)Nc4ccn5ncnc5c4)c3n2)CC1 [Example 629]
320	CC1CC=C(c2ccc(=O)n(CC(=O)N3CCc4c(OCC(C)(C)O)cccc43)n2)CC1 (stereo not shown) [Example 307]
25	CC(C)c1ccc(NC(=O)Cn2ncc3ncc(N(C)C4CC4)nc32)cn1 [Example 708]
478	CC1CC=C(c2ccc(=O)n(CC(=O)N3CCc4c(C5CN(C(=O)CO)C5)cccc43)n2)CC1 (stereo not shown) [Example 321]

same assay, conditions: Concentration for evaluation 10 μM; HEK293 cell line stably expressing human Nav1.1

Nav1.1 current amplification rate (%)	Structure (SMILES)
60	N#Cc1ccc(NC(=O)Cn2nc(N3CCC4(CC3)CC(F)(F)C4)ccc2=O)cc1 [Example 32]
10	CC1CCN(c2ccc(=O)n(CC(=O)Nc3cncnc3)n2)CC1 [Example 56]
202	CC1(C)CCC=C(c2ccc(=O)n(CC(=O)Nc3ccc(C#N)cc3)n2)C1 [Example 45]
53	CC1CC=C(c2ccc(=O)n(CC(=O)N3CCC(Cc4ccccc4)C3)n2)CC1 (stereo not shown) [Example 389]
148	COc1cc(C2=CCC(C(F)(F)F)CC2)nn(CC(=O)Nc2ccc3ocnc3c2)c1=O (racemic) [Example 447]
26	CC1CCN(c2ccc(=O)n(CC(=O)Nc3ccc(F)nc3)n2)CC1 [Example 58]
311	N#Cc1ccc(NC(=O)Cn2nc(N3CCC4(CCC4)C3)ccc2=O)cc1 [Example 34]
124	CC1CC=C(c2ccc(=O)n(CC(=O)N3CCC(c4cccnc4)CC3)n2)CC1 (stereo not shown) [Example 262]
224	CC1CC=C(c2ccc(=O)n(CC(=O)N3CCN(c4cncc(F)c4)CC3)n2)C1 (stereo not shown) [Example 484]
232	COC1CN(c2cccc3c2CCN3C(=O)Cn2nc(C3=CCC(C)(C)CC3)ccc2=O)C1 [Example 434]
198	CC1CCN(c2ccc(=O)n(CC(=O)Nc3cc(Cl)c4ocnc4c3)n2)CC1 [Example 94]
148	COc1cc(=O)n(CC(=O)N2CCN(c3cncc(F)c3)CC2)nc1C1=CCC(C(F)(F)F)CC1 (stereo not shown) [Example 486]
165	CC1CCN(c2ccc(=O)n(CC(=O)Nc3ccc(C(=O)N4CCCC4)cc3)n2)CC1 [Example 79]
110	CC1(C)CCCN(c2ccc(=O)n(CC(=O)Nc3ccc(C#N)cc3)n2)C1 [Example 22]
119	CC1CCN(c2ccc(=O)n(CC(=O)Nc3ccn4ccnc4c3)n2)CC1 [Example 72]
292	CC1(C)CC=C(c2ccc(=O)n(CC(=O)N3CCN(c4cncc(F)c4)CC3)n2)CC1 [Example 444]
175	CC1CC=C(c2ccc(=O)n(CC(=O)N3CC=C(c4cncnc4)CC3)n2)CC1 (stereo not shown) [Example 398]
270	COc1cncc(C2=CCN(C(=O)Cn3nc(C4=CCC(C)CC4)ccc3=O)CC2)c1 (stereo not shown) [Example 403]
283	CC1(C)CC=C(c2ccc(=O)n(CC(=O)Nc3ccn4ccnc4c3)n2)CC1 [Example 425]
301	Cc1c(N2CCC(C)CC2)nn(CC(=O)Nc2ccc(C#N)cc2)c(=O)c1C [Example 35]
49	CC1CCN(c2ccc(=O)n(CC(=O)Nc3cncc(Cl)c3)n2)CC1 [Example 63]
55	CN(c1cnc2cnn(CC(=O)Nc3cc4cccnc4cn3)c2n1)C1CC1 [Example 729]

Structure (SMILES)	Nav1.1 current amplification rate (%)
CC1CCN(c2ccc(=O)n(CC(=O)Nc3ccnc(C#N)c3)n2)CC1 [Example 53]	161

same assay, conditions: Concentration for evaluation 50 μM; HEK293 cell line stably expressing human Nav1.1

Nav1.1 current amplification rate (%)	Structure (SMILES)
212	CC1CC=C(c2ccc(=O)n(CC(=O)N3CCc4c(-c5cc[nH]n5)ccnc43)n2)CC1 (stereo not shown) [Example 291]
10	CC1CC=C(c2ccc(=O)n(CC(=O)NC3CCN(c4ccccc4)C3)n2)CC1 (stereo not shown) [Example 369]
64	O=C(Cn1ncc2cnc(N3CC(C4CC4)C3)nc21)Nc1ccn2ncnc2c1 [Example 782]
80	CC1CC=C(c2ccc(=O)n(CC(=O)N3CCN(C4CCCOC4)CC3)n2)CC1 (stereo not shown) [Example 408]
51	CC1CC=C(c2ccc(=O)n(CC(=O)N3CCc4nc(-c5cn[nH]c5)ccc43)n2)CC1 (stereo not shown) [Example 289]
15	Cc1cc(-c2ncc3cnn(CC(=O)Nc4ccn5ncnc5c4)c3n2)oc1C [Example 781]

same assay, conditions: HEK293, Concentration for evaluation 1 μM; HEK293 cell line stably expressing human Nav1.1; read-out: Nav1.1 current amplification rate (%)

activation at 1 µM [%]	Structure (SMILES)
303	Cc1ccc(-c2cnc3cnn(CC(=O)Nc4ccn5ncnc5c4)c3n2)c(F)c1 [Example 574, 2-[6-(2-Fluoro-4-methylphenyl)-1H-pyrazolo[3,4-b]pyrazin-1-yl]-N-([1,2,4]triazolo[1,5-a]pyridin-7-yl)acetamide]
104	CN(c1cnc2cnn(CC(=O)Nc3ccc(C#N)nc3)c2n1)C1CC(C)(C)C1 [Example 756]
57	CN(c1cnc2cnn(CC(=O)Nc3ccc4ncncc4c3)c2n1)C1CC2(CC2)C1 [Example 759]
249	CC1(C)CC=C(c2cnc3cnn(CC(=O)Nc4ccn5ccnc5c4)c3n2)CC1 [Example 737]

same assay, conditions: HEK293, Concentration for evaluation 3 μM; HEK293 cell line stably expressing human Nav1.1; read-out: Nav1.1 current amplification rate (%)

activation at 3 µM [%]	Structure (SMILES)
10	Cc1nn(CC(=O)Nc2ccc3ncnn3c2)c2nc(N3CCC4(CCC4)C3)cnc12 [Example 739]

same assay, conditions: HEK293, Concentration for evaluation 10 μM; HEK293 cell line stably expressing human Nav1.1; read-out: Nav1.1 current amplification rate (%)

activation at 10 µM [%]	Structure (SMILES)
12	N#Cc1cc(NC(=O)Cn2nc(N3CCCCC3)ccc2=O)ccn1 [Example 116]

same assay, conditions: HEK293, concentration for evaluation 0.3 μM; HEK293 stably expressing human Nav1.1; read-out: Nav1.1 current amplification rate (%)

activation at 0.3 µM [%]	Structure (SMILES)
22	CN(c1cnc2cnn(CC(=O)Nc3ccc4ncncc4c3)c2n1)C1CC2(CC2)C1 [Example 848]

same assay, conditions: HEK293, concentration for evaluation 1 μM; HEK293 stably expressing human Nav1.1; read-out: Nav1.1 current amplification rate (%)

activation at 1 µM [%]	Structure (SMILES)
125	Cc1cc(NC(=O)Cn2ncc3ccc(N(C)C4CC4)nc32)cc2ncnn12 [Example 886]
89	CN(CC1(C)CC1)c1ncc2cnn(CC(=O)Nc3cnc4cccnc4c3)c2n1 [Example 851]
143	Cc1cc(NC(=O)Cn2ncc3cnc(N(C)C4CCCC4(F)F)nc32)cc2ncnn12 (stereo not shown) [Example 839]
103	Cc1cc(NC(=O)Cn2ncc3cnc(N(C)C4CCCC4)nc32)cc2ncnn12 [Example 837]

same assay, conditions: concentration for evaluation 1 μM; HEK293 stably expressing human Nav1.1

Nav1.1 current amplification rate (%)	Structure (SMILES)
108	N#Cc1cnc(NC(=O)Cn2ncc3cnc(N4CCC5(CC5)C(F)(F)C4)nc32)cn1 [Example 828]
105	O=C(Cn1ncc2cnc(N3CCC4(CC4)C(F)(F)C3)nc21)Nc1ccc2ncnn2c1 [Example 813]
10	O=C(Cn1ncc2ccc(-c3ccc(F)cc3F)nc21)Nc1ccc2ncnn2c1 [Example 871]
66	CN(c1ncc2cnn(CC(=O)Nc3ccn4ncnc4c3)c2n1)C1CCC1 [Example 797]
98	CC1CCN(c2ccc3cnn(CC(=O)Nc4ccc5ocnc5c4)c3n2)CC1 [Example 876]
93	CN(CC1(C)CC1)c1ncc2cnn(CC(=O)Nc3ccn4ncnc4c3)c2n1 [Example 804]
